Entries after “also recorded” stand apart in the source; their conditions may differ.
Legend:
[1] = Plasma HDL levels in LDLr null mice, short term model; format: in vivo, mouse; conditions: 7-day treatment
Excerpt: Upregulation of ABCA1 and LCAT also should result in the formation of HDL particles. Following 7-day treatment, compound A increased HDL levels by greater than 50% (FIG. 4).
(§1) This example illustrates the effect of compound A on HDL and the ABCA1, SR-B1 and LCAT genes associated with RCT in LDL-receptor (LDLr) null mice in a short term model.
(§2) Eight-weeks-old LDLr mice (Jackson Laboratories, Bar Harbor, Me.), were used for this Example. Mice were distributed into two groups of 8 mice each. One group received vehicle containing carboxymethyl cellulose and Tween-80 (Sigma Chemical Co.), and the other group received a daily dose of compound A at 25 mg/kg.
(§3) After one week, plasma samples were collected and used for HDL determination. Mice were euthanized by CO2, and aorta and liver samples were collected for RNA isolation.

SR-B1 [2] = assay: SR-B1 expression in normal animals (rat liver), real time PCR; format: in vivo
Excerpt: (§4) After 7 days of treatment RCT pathway genes were quantitated using real time PCR.

atherosclerotic lesions = assay: Atherosclerotic lesion area in LDLr null mice on Western Diet, long term model; format: in vivo, mouse; conditions: high fat diet, 25 mg/kg daily, 16 weeks
Excerpt: The atheroprotective effects of HDL to a large extent are attributed to its ability to remove cholesterol from macrophages present in atherosclerotic lesions to transport them to liver for excretion into bile. LDLr null mice develop atherosclerosis when fed a high fat diet. […] This example illustrates the effect of compound A on HDL and atherosclerosis in LDLr null mice in a long term model. Eight-weeks-old LDLr null mice (Jackson Laboratories, Bar Harbor, Me.), were used for these studies. Two groups of 8 mice each received a Western Diet (Research Diet incorporated, New Brunswick, N.J.; D12079B containing 0.1% cholesterol) for 2 weeks. Plasma samples were collected and used for lipid analysis. Mice were then distributed into two groups, one group received vehicle containing carboxymethyl cellulose and Tween-80 (Sigma Chemical Co.), and the other group received a daily dose of compound A at 25 mg/kg. Both groups were continued on the Western Diet for another 16 weeks. At the end of the 16 weeks, the mice were euthanized by CO2, and whole aortas (from aortic sinus to the beginning of iliac aorta) were isolated, and fixed in 10% paraformaldehyde. […] Images of whole aortas were obtained by microscopic digital camera, and the lesion area was determined by computer-assisted morphometry (Image Pro, Media cybermetics) as percentages of coverage in whole aorta. […]

ABCA1 [3] = assay: ABCA1 gene expression in LDL-r null mouse liver, real time PCR; format: in vivo
Protocol: (§5) To determine if a test compound was capable of upregulating these three RCT pathway genes, LDL-r mice were treated with vehicle alone (control) or vehicle containing a defined amount of a test compound termed, “compound A”.
(§6) LDL-r mice were chosen because they are prone to develop atherosclerosis. After 7 days of treatment, the three RCT pathway genes were quantitated using real time PCR. […] Thus, compound A coordinately up regulated the three RCT pathway genes, namely ABCA1, LCAT, and SRB1.
as §1
Eight-weeks-old LDLr mice (Jackson Laboratories, Bar Harbor, Me.), were used for this Example. Mice were distributed into two groups of 8 mice each. […]
as §3
(§7) Next, liver and aorta samples from vehicle and compound A treated mice were removed, flash frozen in liquid nitrogen and subsequently used for RNA isolation. […] RNA was then verified and quantified using the Agilent RNA 600 Nano Assay Labchip® system, and real time PCR was performed to quantitate the gene expression of SR-B1, ABCA1 and LCAT using validated primer sets from SuperArray. […]

LCAT = LCAT gene expression in LDL-r null mouse liver, real time PCR; format: in vivo
Protocol: as §5, §6, §1
as §2, with “mg/kg. […]” for “mg/kg.”
as §7

SR-B1 [4] = assay: SR-B1 gene expression in LDL-r null mouse liver, real time PCR; format: in vivo
Protocol: as §5, §6, §1
as §2, with “mg/kg. […]” for “mg/kg.”
as §7

ABCA1 [5] = assay: ABCA1 expression in HepG2 liver cells, real time PCR; format: cell-based, human; conditions: HepG2, treated overnight
Protocol: (§8) The hepatoma cell line HepG2 are frequently used as in vitro models of liver cells. They are easy to culture and retain many properties of liver cells including expression of various genes involved in lipid metabolism.
(§9) This example illustrates the effect of compound A on genes associated with RCT in HepG2 cells.
(§10) Human HepG2 cells were cultured in DMEM containing 4500 mg glucose/L (ATCC) supplemented with 10% fetal bovine serum (FBS), penicillin (100 U/ml), and streptomycin (100 μg/ml) in a humidified atmosphere (5% CO2 in air) at 37° C. Cells were plated onto 12 well dishes and cultured in low serum (0.5% FBS) for experiments. Cells were treated with either vehicle (DMSO) or the test compound overnight and used for RNA isolation. Briefly, cells were lysed in 300 uL of lysis buffer (Qiagen) and placed in the TissueLyser (Qiagen) for 3 minutes. Samples were then processed as described by the RNeasy mini kit. RNA was then verified and quantified using the Agilent RNA 600 Nano Assay Labchip® system, and real time PCR was performed to quantitate gene expression using validated primer sets from SuperArray. The results were illustrated in FIGS. 8-9.

SRB1 = SRB1 expression in HepG2 liver cells, real time PCR; format: cell-based, human; conditions: HepG2, treated overnight
Protocol: as §8, §9, §10

ABCA1 [6] = assay: ABCA1 expression in normal animals (rat liver), real time PCR; format: in vivo
Excerpt: as §4

CAD = conditions: 4081 asymptomatic middle-aged men with primary dyslipidemia, 5 years; cited from earlier work
[7] = normal animals, 10 and 25 mg/kg, 7 days of treatment
[8] = LDL-r mice, 10 and 25 mg/kg, 7 days of treatment, liver

Compound	increase in HDL levels [1]	SRB1 expression in rat liver (SR-B1 [2])	increase in SR-B1 expression compared to vehicle treated animals (SR-B1 [2]; [7])	effect on atherosclerotic lesions (atherosclerotic lesions)	ABCA1 expression in LDL-r null mouse liver (ABCA1 [3])	increase in ABCA1 expression compared to vehicle treated animals (ABCA1 [3]; [8])	LCAT expression in LDL-r null mouse liver (LCAT)	increase in LCAT expression (LCAT; LDL-r mice, 7 days of treatment, liver)	SRB1 expression in LDL-r null mouse liver (SR-B1 [4])	increase in SR-B1 expression compared to vehicle treated animals (SR-B1 [4]; [8])	ABCA1 expression in liver cells (ABCA1 [5])	ABCA1 expression in liver cells (ABCA1 [5]; listed as compound of Formula I)	SRB1 expression in liver cells (SRB1)	ABCA1 expression in rat liver (ABCA1 [6])	increase in ABCA1 expression compared to vehicle treated animals (ABCA1 [6]; [7])	decrease in CAD (CAD) [%]
CC(=O)c1ccc(Nc2nc(-c3ccccc3)cc(N3CCC(O)CC3)n2)cc1 [compound A]	greater than 50%	induces	2-4 fold	inhibits atherosclerosis development; also recorded: significant decrease	induces	2-3 fold	induces	30-90%	induces	2-2.5 fold	induces	capable of increasing	capable of increasing	induces	2-4 fold	–
Cc1ccc(C)c(OCCCC(C)(C)C(=O)O)c1 [gemfibrozil]	–	–	–	–	–	–	–	–	–	–	–	–	–	–	–	34
